Experimental data from the NIST ThermoML archive (doi:10.1021/je060271a).
Where “and” joins values, the source holds several entries; their conditions need not be identical. Equal entries are not always repeated.

Conditions: 283.15 K, Liquid, Vibrating tube method

CCCCCC(=O)OCC(COC(=O)CCCCC)(COC(=O)CCCCC)COC(=O)CCCCC [pentaerythritol tetrahexanoate]
Conditions | mass density
147.5 kPa | 1004.2 kg/m3
147.8 kPa | 1004.2 kg/m3
148.2 kPa | 1004.2 kg/m3
148.7 kPa | 1004.3 kg/m3
150.5 kPa | 1004.1 kg/m3
150.8 kPa | 1004.2 kg/m3
151.3 kPa | 1004.3 kg/m3
151.5 kPa | 1004.3 kg/m3
151.7 kPa | 1004.3 kg/m3
152.4 kPa | 1004.2 kg/m3
152.7 kPa | 1004.2 kg/m3
153.2 kPa | 1004.2 kg/m3
153.4 kPa | 1004.2 kg/m3
153.7 kPa | 1004.4 kg/m3
154.1 kPa | 1004.3 kg/m3
154.3 kPa | 1004.2 kg/m3
154.6 kPa | 1004.1 kg/m3 and 1004.2 kg/m3
155.1 kPa | 1004.3 kg/m3
155.7 kPa | 1004.2 kg/m3
156.4 kPa | 1004.2 kg/m3
156.5 kPa | 1004.1 kg/m3 and 1004.2 kg/m3
157.2 kPa | 1004.3 kg/m3
157.6 kPa | 1004.2 kg/m3
157.7 kPa | 1004.2 kg/m3
157.9 kPa | 1004.3 kg/m3
160.5 kPa | 1004.2 kg/m3
161 kPa | 1004.2 kg/m3
161.4 kPa | 1004.2 kg/m3
161.6 kPa | 1004.3 kg/m3
162.3 kPa | 1004.3 kg/m3
162.4 kPa | 1004.1 kg/m3
163 kPa | 1004.2 kg/m3
163.1 kPa | 1004.3 kg/m3
163.8 kPa | 1004.3 kg/m3
164.2 kPa | 1004.3 kg/m3
164.5 kPa | 1004.2 kg/m3
164.7 kPa | 1004.3 kg/m3
165.2 kPa | 1004.2 kg/m3
165.7 kPa | 1004.3 kg/m3
166.4 kPa | 1004.1 kg/m3
166.8 kPa | 1004.3 kg/m3
166.9 kPa | 1004.3 kg/m3
167.5 kPa | 1004.2 kg/m3
168.2 kPa | 1004.2 kg/m3
169.7 kPa | 1004.2 kg/m3
173.5 kPa | 1004.2 kg/m3
174.1 kPa | 1004.2 kg/m3
174.8 kPa | 1004.1 kg/m3
175.1 kPa | 1004.3 kg/m3
175.4 kPa | 1004.2 kg/m3
177 kPa | 1004.2 kg/m3
177.9 kPa | 1004.2 kg/m3
178 kPa | 1004.2 kg/m3
178.4 kPa | 1004.1 kg/m3
178.9 kPa | 1004.2 kg/m3
179.4 kPa | 1004.2 kg/m3
179.6 kPa | 1004.2 kg/m3
179.8 kPa | 1004.2 kg/m3
180.3 kPa | 1004.3 kg/m3
181 kPa | 1004.2 kg/m3
181.4 kPa | 1004.2 kg/m3
181.9 kPa | 1004.3 kg/m3
182.2 kPa | 1004.2 kg/m3
182.9 kPa | 1004.3 kg/m3
184.1 kPa | 1004.3 kg/m3
185 kPa | 1004.3 kg/m3
185.3 kPa | 1004.2 kg/m3
185.7 kPa | 1004.2 kg/m3
186 kPa | 1004.3 kg/m3
186.4 kPa | 1004.2 kg/m3
187.1 kPa | 1004.2 kg/m3
187.6 kPa | 1004.3 kg/m3
188.3 kPa | 1004.3 kg/m3
188.6 kPa | 1004.2 kg/m3
188.8 kPa | 1004.1 kg/m3
189.2 kPa | 1004.2 kg/m3
189.5 kPa | 1004.3 kg/m3
189.9 kPa | 1004.3 kg/m3
190.2 kPa | 1004.1 kg/m3
190.5 kPa | 1004.3 kg/m3
190.7 kPa | 1004.2 kg/m3
191.4 kPa | 1004.2 kg/m3
191.9 kPa | 1004.3 kg/m3
192.3 kPa | 1004.3 kg/m3 and 1004.2 kg/m3
192.6 kPa | 1004.4 kg/m3
192.8 kPa | 1004.2 kg/m3
193.1 kPa | 1004.2 kg/m3
193.3 kPa | 1004.2 kg/m3
193.8 kPa | 1004.2 kg/m3
194.4 kPa | 1004.2 kg/m3
194.7 kPa | 1004.3 kg/m3
195.1 kPa | 1004.3 kg/m3
195.2 kPa | 1004.2 kg/m3
195.8 kPa | 1004.2 kg/m3
195.9 kPa | 1004.2 kg/m3
196.3 kPa | 1004.3 kg/m3
196.8 kPa | 1004.3 kg/m3
197.1 kPa | 1004.2 kg/m3
197.3 kPa | 1004.2 kg/m3
197.5 kPa | 1004.1 kg/m3
197.8 kPa | 1004.3 kg/m3
198.2 kPa | 1004.2 kg/m3
198.7 kPa | 1004.3 kg/m3
198.9 kPa | 1004.3 kg/m3
199.2 kPa | 1004.2 kg/m3
199.6 kPa | 1004.4 kg/m3
200.3 kPa | 1004.3 kg/m3
200.8 kPa | 1004.1 kg/m3 and 1004.3 kg/m3
201 kPa | 1004.2 kg/m3
201.5 kPa | 1004.1 kg/m3
202 kPa | 1004.3 kg/m3
202.2 kPa | 1004.4 kg/m3
202.5 kPa | 1004.2 kg/m3
202.7 kPa | 1004.1 kg/m3
203.2 kPa | 1004.3 kg/m3
204.1 kPa | 1004.1 kg/m3
204.3 kPa | 1004.2 kg/m3
204.6 kPa | 1004.2 kg/m3
205.1 kPa | 1004.2 kg/m3
205.7 kPa | 1004.2 kg/m3
205.8 kPa | 1004.2 kg/m3
206.5 kPa | 1004.3 kg/m3 and 1004.2 kg/m3
207 kPa | 1004.1 kg/m3
208.6 kPa | 1004.2 kg/m3
208.8 kPa | 1004.3 kg/m3
209.3 kPa | 1004.2 kg/m3
209.6 kPa | 1004.2 kg/m3
210 kPa | 1004.2 kg/m3
210.5 kPa | 1004.3 kg/m3
211 kPa | 1004.2 kg/m3
211.6 kPa | 1004.3 kg/m3
212.1 kPa | 1004.2 kg/m3
212.4 kPa | 1004.3 kg/m3
212.8 kPa | 1004.3 kg/m3
212.9 kPa | 1004.2 kg/m3
213.5 kPa | 1004.3 kg/m3
213.8 kPa | 1004.2 kg/m3
214.5 kPa | 1004.3 kg/m3
215.2 kPa | 1004.3 kg/m3
215.7 kPa | 1004.2 kg/m3
216.2 kPa | 1004.3 kg/m3
216.8 kPa | 1004.2 kg/m3
217.5 kPa | 1004.2 kg/m3
219 kPa | 1004.1 kg/m3
219.4 kPa | 1004.3 kg/m3
